The record followed here is patent US20260125382A1, “COMPOUNDS FOR INHIBITING OR DEGRADING CDK2 AND/OR CDK9 AND MEDICINAL USE THEREOF” (KOREA RESEARCH INSTITUTE OF CHEMICAL TECHNOLOGY, priority 2022, published 2026).

In test [1] the target is T1, CDK2 (Homo sapiens, UniProt P24941).
T1 construct: endogenous in cells; host or cells: MDA-MB-231
As to the kind of experiment: CDK protein degradation activity (Western blotting), CDK2. The test is classed as cell-based. As to conditions: MDA-MB-231 cells, 16 hours, Western blot. Put shortly: (§1)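 Breast cancer line MDA-MB-231, 16 h compound treatment (100 nM–10 μM final, three doses). Immunoblot quantification of CDK2/CDK9 versus tubulin, normalized to DMSO control.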

For test [2], the target named is T2, CDK9 (Homo sapiens, UniProt P50750).
T2 construct: endogenous in cells; host or cells: MDA-MB-231
The test is described as follows: CDK protein degradation activity (Western blotting), CDK9. The test is classed as cell-based. As to conditions: MDA-MB-231 cells, 16 hours, Western blot. In short, it runs like this:
as §1
Background: A western blot detects proteins with antibodies after separation by electrophoresis.

T2 sequence (P50750 whole entry): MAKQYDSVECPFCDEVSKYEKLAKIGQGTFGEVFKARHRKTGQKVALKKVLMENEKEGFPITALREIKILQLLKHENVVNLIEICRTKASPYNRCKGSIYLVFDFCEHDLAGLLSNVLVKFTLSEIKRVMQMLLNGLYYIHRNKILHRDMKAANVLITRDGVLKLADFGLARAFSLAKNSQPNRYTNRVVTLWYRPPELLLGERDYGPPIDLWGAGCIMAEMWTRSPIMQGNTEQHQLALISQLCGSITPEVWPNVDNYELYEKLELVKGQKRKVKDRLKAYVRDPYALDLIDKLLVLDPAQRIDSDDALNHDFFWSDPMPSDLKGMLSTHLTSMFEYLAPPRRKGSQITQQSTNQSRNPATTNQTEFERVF

`Cc1cccc(C(=O)NC2CC(n3cnc4c(Nc5ccc(N6CCN(CC7CCN(c8ccc9nnn([C@H]%10CCC(=O)NC%10=O)c(=O)c9c8)CC7)CC6)cc5C)ncnc43)C2)n1` (stereo partly drawn) [Compound 478, N-((1s,3s)-3-(6-((4-(4-((1-(3-(2,6-dioxopiperidin-3-yl)-4-oxo-3,4-dihydrobenzo[d][1,2,3]triazin-6-yl)piperidin-4-yl)methyl)piperazin-1-yl)-2-methylphenyl)amino)-9H-purin-9-yl)cyclobutyl)-6-methylpicolinamide]: in test [1], the “Enzyme degradation CDK2 (% remaining) @ 0.1 μM” value is recorded as 10%, the “Enzyme degradation CDK2 (% remaining) @ 1 μM” value was 20% and the “Enzyme degradation CDK2 (% remaining) @ 10 μM” value was 20%. Moreover, in test [2], the “Enzyme degradation CDK9 (% remaining) @ 0.1 μM” value is 20/20/20%, the “Enzyme degradation CDK9 (% remaining) @ 1 μM” value is on record as 20/20/20% and the “Enzyme degradation CDK9 (% remaining) @ 10 μM” value is reported as 20/20/20%.

With `O=C1CC[C@H](n2nnc3ccc(N4CCC(CCN5CCN(c6ccc(Nc7ncnc8c7ncn8C7CC(NC(=O)Cc8ccccc8)C7)cc6)CC5)CC4)cc3c2=O)C(=O)N1` (stereo partly drawn) [Compound 324, N-((1s,3s)-3-(6-((4-(4-(2-(1-(3-(2,6-dioxopiperidin-3-yl)-4-oxo-3,4-dihydrobenzo[d][1,2,3]triazin-6-yl)piperidin-4-yl)ethyl)piperazin-1-yl)phenyl)amino)-9H-purin-9-yl)cyclobutyl)-2-phenylacetamide], in test [1], the “Enzyme degradation CDK2 (% remaining) @ 0.1 μM” value amounted to 70%, the “Enzyme degradation CDK2 (% remaining) @ 1 μM” value is reported as 80% and the “Enzyme degradation CDK2 (% remaining) @ 10 μM” value was determined as 10%. Also, in test [2], the “Enzyme degradation CDK9 (% remaining) @ 0.1 μM” value was 0/0/0%, the “Enzyme degradation CDK9 (% remaining) @ 1 μM” value is on record as 0/0/0% and the “Enzyme degradation CDK9 (% remaining) @ 10 μM” value is recorded as 0/0/0%.

In the case of `O=C1CC[C@H](N2C(=O)c3ccc(N4CC(CN5CCC(CCN6CCN(c7ccc(Nc8ncnc9c8ncn9[C@H]8C[C@@H](NC(=O)Cc9ccccc9)C8)cc7)CC6)CC5)C4)cc3C2=O)C(=O)N1` [Compound 375, N-((1s,3s)-3-(6-((4-(4-(2-(1-((1-(2-(2,6-dioxopiperidin-3-yl)-1,3-dioxoisoindolin-5-yl)azetidin-3-yl)methyl)piperidin-4-yl)ethyl)piperazin-1-yl)phenyl)amino)-9H-purin-9-yl)cyclobutyl)-2-phenylacetamide], in test [1], the “Enzyme degradation CDK2 (% remaining) @ 0.1 μM” value is 30%, the “Enzyme degradation CDK2 (% remaining) @ 1 μM” value is listed as 10% and the “Enzyme degradation CDK2 (% remaining) @ 10 μM” value is 10%. Moreover, in test [2], the “Enzyme degradation CDK9 (% remaining) @ 0.1 μM” value is 30%, the “Enzyme degradation CDK9 (% remaining) @ 1 μM” value is recorded as 10% and the “Enzyme degradation CDK9 (% remaining) @ 10 μM” value came to 10%.

As for `Cc1cccc(C(=O)NC2CC(n3cnc4c(NCCC5CCN(CC6CCN(c7ccc8c(c7)C(=O)N([C@H]7CCC(=O)NC7=O)C8=O)CC6)CC5)ncnc43)C2)n1` (stereo partly drawn) [Compound 308, N-((1s,3s)-3-(6-((2-(1-((1-(2-(2,6-dioxopiperidin-3-yl)-1,3-dioxoisoindolin-5-yl)piperidin-4-yl)methyl)piperidin-4-yl)ethyl)amino)-9H-purin-9-yl)cyclobutyl)-6-methylpicolinamide], in test [1], the “Enzyme degradation CDK2 (% remaining) @ 0.1 μM” value turned out to be 40%, the “Enzyme degradation CDK2 (% remaining) @ 1 μM” value is reported as 30% and the “Enzyme degradation CDK2 (% remaining) @ 10 μM” value was found to be 30%. Besides, in test [2], the “Enzyme degradation CDK9 (% remaining) @ 0.1 μM” value came to 20%, the “Enzyme degradation CDK9 (% remaining) @ 1 μM” value is reported as 0% and the “Enzyme degradation CDK9 (% remaining) @ 10 μM” value turned out to be 20%.

In the case of `O=C1CC[C@H](N2C(=O)c3ccc(OCC(=O)N4CCC(CN5CCC(CNc6ncnc7c6ncn7C6CC(NC(=O)c7c(Cl)cccc7Cl)C6)CC5)CC4)cc3C2=O)C(=O)N1` (stereo partly drawn) [Compound 169, 2,6-dichloro-N-((1s,3s)-3-(6-(((1-((1-(2-((2-(2,6-dioxopiperidin-3-yl)-1,3-dioxoisoindolin-5-yl)oxy)acetyl)piperidin-4-yl)methyl)piperidin-4-yl)methyl)amino)-9H-purin-9-yl)cyclobutyl)benzamide], in test [1], the “Enzyme degradation CDK2 (% remaining) @ 0.1 μM” value turned out to be 80%, the “Enzyme degradation CDK2 (% remaining) @ 1 μM” value was 70% and the “Enzyme degradation CDK2 (% remaining) @ 10 μM” value stood at 70%. Also, in test [2], the “Enzyme degradation CDK9 (% remaining) @ 0.1 μM” value was 10%, the “Enzyme degradation CDK9 (% remaining) @ 1 μM” value is recorded as 0% and the “Enzyme degradation CDK9 (% remaining) @ 10 μM” value is listed as 0%.

In the case of `O=C1CC[C@H](N2C(=O)c3ccc(N4CCC5(CC4)CC(N4CCC(c6ccc(Nc7ncnc8c7ncn8[C@H]7C[C@@H](NC(=O)Cc8ccccc8)C7)cc6)CC4)C5)cc3C2=O)C(=O)N1` [Compound 298, N-((1s,3s)-3-(6-((4-(1-(7-(2-(2,6-dioxopiperidin-3-yl)-1,3-dioxoisoindolin-5-yl)-7-azaspiro[3.5]nonan-2-yl)piperidin-4-yl)phenyl)amino)-9H-purin-9-yl)cyclobutyl)-2-phenylacetamide], in test [1], the “Enzyme degradation CDK2 (% remaining) @ 0.1 μM” value was 10/10/10%, the “Enzyme degradation CDK2 (% remaining) @ 1 μM” value is given as 10/10/10% and the “Enzyme degradation CDK2 (% remaining) @ 10 μM” value is 10/10/10%. Moreover, in test [2], the “Enzyme degradation CDK9 (% remaining) @ 0.1 μM” value is given as 10%, the “Enzyme degradation CDK9 (% remaining) @ 1 μM” value is 0% and the “Enzyme degradation CDK9 (% remaining) @ 10 μM” value amounted to 0%.

Take `O=C1CC[C@H](N2C(=O)c3cc(F)c(N4CCC(C(=O)N5CCN(CC6CCN(c7ccc(Nc8ncnc9c8ncn9[C@H]8C[C@@H](NC(=O)c9c(Cl)cccc9Cl)C8)cc7)CC6)CC5)CC4)cc3C2=O)C(=O)N1` [Compound 475, 2,6-dichloro-N-((1s,3s)-3-(6-((4-(4-((4-(1-(2-(2,6-dioxopiperidin-3-yl)-6-fluoro-1,3-dioxoisoindolin-5-yl)piperidin-4-carbonyl)piperazin-1-yl)methyl)piperidin-1-yl)phenyl)amino)-9H-purin-9-yl)cyclobutyl)benzamide]: in test [1], the “Enzyme degradation CDK2 (% remaining) @ 0.1 μM” value is 20/20/20%, the “Enzyme degradation CDK2 (% remaining) @ 1 μM” value is given as 20/20/20% and the “Enzyme degradation CDK2 (% remaining) @ 10 μM” value was 20/20/20%. Also, in test [2], the “Enzyme degradation CDK9 (% remaining) @ 0.1 μM” value was 0/0/0%, the “Enzyme degradation CDK9 (% remaining) @ 1 μM” value is on record as 0/0/0% and the “Enzyme degradation CDK9 (% remaining) @ 10 μM” value is reported as 0/0/0%.

Turning to `O=C1CC[C@@H](c2ccc(OCC(=O)N3CCC(CCCN4CCN(c5ccc(Nc6ncnc7c6ncn7[C@H]6C[C@@H](NC(=O)Cc7ccccc7)C6)cc5)CC4)CC3)cc2)C(=O)N1` [Compound 258, N-((1s,3s)-3-(6-((4-(4-(3-(1-(2-(4-(2,6-dioxopiperidin-3-yl)phenoxy)acetyl)piperidin-4-yl)propyl)piperazin-1-yl)phenyl)amino)-9H-purin-9-yl)cyclobutyl)-2-phenylacetamide], in test [1], the “Enzyme degradation CDK2 (% remaining) @ 0.1 μM” value was 20/20/20%, the “Enzyme degradation CDK2 (% remaining) @ 1 μM” value is recorded as 20/20/20% and the “Enzyme degradation CDK2 (% remaining) @ 10 μM” value is recorded as 20/20/20%. In addition, in test [2], the “Enzyme degradation CDK9 (% remaining) @ 0.1 μM” value stood at 20%, the “Enzyme degradation CDK9 (% remaining) @ 1 μM” value was 0% and the “Enzyme degradation CDK9 (% remaining) @ 10 μM” value was found to be 0%.

Consider `O=C1CC[C@@H](c2ccc(OCC(=O)N3CCC4(CC3)CC(N3CCN(c5ccc(Nc6ncnc7c6ncn7[C@H]6C[C@@H](NC(=O)c7cccc(C(F)(F)F)n7)C6)cc5)CC3)C4)cc2)C(=O)N1` [Compound 439, N-((1s,3s)-3-(6-((4-(4-(7-(2-(4-(2,6-dioxopiperidin-3-yl)phenoxy)acetyl)-7-azaspiro[3.5]nonan-2-yl)piperazin-1-yl)phenyl)amino)-9H-purin-9-yl)cyclobutyl)-6-(trifluoromethyl)picolinamide], for which, in test [1], the “Enzyme degradation CDK2 (% remaining) @ 0.1 μM” value is 50/50/50%, the “Enzyme degradation CDK2 (% remaining) @ 1 μM” value is recorded as 50/50/50% and the “Enzyme degradation CDK2 (% remaining) @ 10 μM” value is listed as 50/50/50%. Further, in test [2], the “Enzyme degradation CDK9 (% remaining) @ 0.1 μM” value is given as 10/10/10%, the “Enzyme degradation CDK9 (% remaining) @ 1 μM” value is 10/10/10% and the “Enzyme degradation CDK9 (% remaining) @ 10 μM” value was 10/10/10%.

Regarding `Cc1cccc(C(=O)N[C@H]2C[C@@H](n3cnc4c(NCc5cccc(N6CCN(C(=O)CNc7ccc8c(c7)C(=O)N([C@H]7CCC(=O)NC7=O)C8=O)CC6)c5)ncnc43)C2)n1` [Compound 131, N-((1s,3s)-3-(6-((3-(4-((2-(2,6-dioxopiperidin-3-yl)-1,3-dioxoisoindolin-5-yl)glycyl)piperazin-1-yl)benzyl)amino)-9H-purin-9-yl)cyclobutyl)-6-methylpicolinamide], in test [1], the “Enzyme degradation CDK2 (% remaining) @ 0.1 μM” value turned out to be 80%, the “Enzyme degradation CDK2 (% remaining) @ 1 μM” value amounted to 100% and the “Enzyme degradation CDK2 (% remaining) @ 10 μM” value was determined as 100%. Besides, in test [2], the “Enzyme degradation CDK9 (% remaining) @ 0.1 μM” value is listed as 60/60/60%, the “Enzyme degradation CDK9 (% remaining) @ 1 μM” value was 60/60/60% and the “Enzyme degradation CDK9 (% remaining) @ 10 μM” value is listed as 60/60/60%.

`Cc1cccc(C(=O)NC2CC(n3cnc4c(NCCC5CCN(CC6CCN(C(=O)C7CCN(c8ccc9c(c8)C(=O)N([C@H]8CCC(=O)NC8=O)C9=O)CC7)CC6)CC5)ncnc43)C2)n1` (stereo partly drawn) [Compound 355, N-((1s,3s)-3-(6-((2-(1-((1-(1-(2-(2,6-dioxopiperidin-3-yl)-1,3-dioxoisoindolin-5-yl)piperidin-4-carbonyl)piperidin-4-yl)methyl)piperidin-4-yl)ethyl)amino)-9H-purin-9-yl)cyclobutyl)-6-methylpicolinamide]: in test [1], the “Enzyme degradation CDK2 (% remaining) @ 0.1 μM” value is 70%, the “Enzyme degradation CDK2 (% remaining) @ 1 μM” value was 60% and the “Enzyme degradation CDK2 (% remaining) @ 10 μM” value is on record as 60%. In test [2], the “Enzyme degradation CDK9 (% remaining) @ 0.1 μM” value is listed as 10%, the “Enzyme degradation CDK9 (% remaining) @ 1 μM” value turned out to be 0% and the “Enzyme degradation CDK9 (% remaining) @ 10 μM” value amounted to 0%.
